The subject of one assay is Micrococcus luteus. Description: Antibacterial activity against Micrococcus luteus. Format: functional.
Assay [1] deals with Pseudomonas aeruginosa. In words: Antibacterial activity against Pseudomonas aeruginosa. Format: functional.
The subject of assay [2] is Bacillus subtilis. In words: Antibacterial activity against Bacillus subtilis. Format: functional.
Assay [3] relates to Staphylococcus aureus. In words: Antibacterial activity against Staphylococcus aureus. Format: functional.
Assay [4] has as its system Staphylococcus aureus. Description: Antibacterial activity against Staphylococcus aureus MLS16. Format: functional.
The test system of assay [5] is Escherichia coli. In words: Antibacterial activity against Escherichia coli. In kind it is functional.
For the next assay, the system named is Raoultella planticola. Description: Antibacterial activity against Klebsiella planticola. Format: functional.
For assay [6], the system named is Staphylococcus aureus. Description: Antibacterial activity against Staphylococcus aureus ATCC 49444 after 24 hrs by CLSI protocol based cup-plate agar diffusion method. In kind it is functional. A general note: In agar diffusion tests the substance spreads into inoculated agar from a disc or well.
A further assay concerns Listeria monocytogenes. In words: Antibacterial activity against Listeria monocytogenes ATCC 19115 after 24 hrs by CLSI protocol based cup-plate agar diffusion method. Format: functional.
Another assay relates to Salmonella typhimurium. Description: Antibacterial activity against Salmonella typhimurium ATCC 14028 after 24 hrs by CLSI protocol based cup-plate agar diffusion method. The following applies: Salmonella enterica. In kind it is functional, Salmonella enterica subsp. enterica serovar Typhimurium.
Assay [7] relates to Pseudomonas aeruginosa. Description: Antibacterial activity against Pseudomonas aeruginosa ATCC 27853 after 24 hrs by CLSI protocol based cup-plate agar diffusion method. In kind it is functional.
The subject of assay [8] is Escherichia coli. In words: Antibacterial activity against Escherichia coli AG102 in presence of ciprofloxacin. Format: functional.
For assay [9], the system named is Escherichia coli. In words: Antibacterial activity against Escherichia coli AG102. Format: functional.
The test system of assay [10] is Staphylococcus aureus. Description: Antibacterial activity against Staphylococcus aureus ATCC 25923 by CLSI protocol based microdilution method. In kind it is functional, organism-based.
Assay [11] has as its system Staphylococcus aureus. In words: Antibacterial activity against Staphylococcus aureus ATCC 6538 by CLSI protocol based microdilution method. In kind it is functional, organism-based. Background: Broth dilution looks for growth in wells or tubes with falling amounts of substance.
Assay [12] relates to Staphylococcus aureus. Description: Antibacterial activity against Staphylococcus aureus MTCC 121 after 7 days by two-fold serial dilution method. Format: functional. The note with it: MTCC 121, 168 h, time 7 day.
Assay [13] relates to Escherichia coli. In words: Antibacterial activity against Escherichia coli MTCC 40 after 7 days by two-fold serial dilution method. The following applies: MTCC 40, 168 h, time 7 day. Format: functional.
Assay [14] deals with Pseudomonas aeruginosa. Description: Antibacterial activity against Pseudomonas aeruginosa MTCC 2453 after 7 days by two-fold serial dilution method. Format: functional. The following applies: MTCC 2453, 168 h, time 7 day.
Assay [15] has as its system Bacillus subtilis. Description: Antibacterial activity against Bacillus subtilis […] after 7 days by two-fold serial dilution method. In kind it is functional. The following applies: 168 h, time 7 day.
For assay [16], the system named is Enterococcus faecalis. In words: Antibiofilm activity against Enterococcus faecalis. Format: functional.
Assay [17] relates to Enterococcus faecalis. Description: Antibacterial activity against Enterococcus faecalis. Format: functional.

Molecules are shown by their SMILES. ≈ marks a conversion by molar mass, not a printed value. Where only a bound is given, the exact number is not on record here.

In the case of `O=c1oc2ccccc2cc1-c1nn(-c2nc3ccccc3s2)cc1/C=N/Nc1nc(-c2ccc(Br)cc2)cs1`, the MIC in the assay with Micrococcus luteus is 7.8 µg/mL (≈ 12.5 µM); against Pseudomonas aeruginosa [1], over 125 µg/mL; in the assay with Bacillus subtilis [2], 3.9 µg/mL (≈ 6.23 µM); in the assay with Staphylococcus aureus [3], 7.8 µg/mL (≈ 12.5 µM); in the assay on Staphylococcus aureus [4], 7.8 µg/mL (≈ 12.5 µM); in the assay with Escherichia coli [5], 7.8 µg/mL (≈ 12.5 µM). In the assay with Raoultella planticola, this compound returned an MIC of 7.8 µg/mL (≈ 12.5 µM).
For `COc1ccccc1/C=N\n1c(S)nnc1-c1sc(-c2ccccc2)nc1C`, the minimal inhibitory concentration (MIC) in the assay with Staphylococcus aureus [6] came to 31.2 µg/mL (≈ 76.6 µM); with Listeria monocytogenes, 1.9 µg/mL (≈ 4.66 µM); in the assay on Salmonella typhimurium, 62.5 µg/mL (≈ 153 µM); in the assay on Pseudomonas aeruginosa [7], 1.9 µg/mL (≈ 4.66 µM).
Consider `O=C(Cc1ccccc1)Nc1ccc(-c2nc3ccccc3s2)cc1`, for which the MIC was determined as 0.125 µg/mL in the assay on Escherichia coli [8] and 256 µg/mL (≈ 743 µM) in the assay on Escherichia coli [9].
Turning to `CC(C)(C)OC(=O)NCCn1cc(-c2nc(-c3c[nH]c4ccccc34)cs2)c2ccccc21`, the IC50 came to 3.9 µg/mL (≈ 8.5 µM) with Staphylococcus aureus [10] and 5.2 µg/mL (≈ 11.3 µM) in the assay on Staphylococcus aureus [11].
As to `O=C(Nc1ccc(Cc2nc3ccccc3s2)cc1)c1ccc(Br)cc1`, the MIC with Escherichia coli [8] amounted to 0.03 µg/mL; against Escherichia coli [9], 128 µg/mL (≈ 302 µM).
As to `O=C(NN1C(=O)/C(=C/c2cccc(Br)c2)SC1c1cccc(Br)c1)c1ccc(-c2ccccc2)cc1` (stereo not given), the MIC in the assay on Staphylococcus aureus [12] turned out to be 3.12 µg/mL (≈ 5.03 µM); against Escherichia coli [13], 6.25 µg/mL (≈ 10.1 µM); in the assay on Pseudomonas aeruginosa [14], 6.25 µg/mL (≈ 10.1 µM); in the assay on Bacillus subtilis [15] it was 3.12 µg/mL (≈ 5.03 µM).
For `Cc1nc(-c2ccccc2)sc1-c1nnc(S)n1/N=C\c1cccs1`, the MIC with Staphylococcus aureus [6] came to 15.6 µg/mL (≈ 40.7 µM); against Listeria monocytogenes it was 1.9 µg/mL (≈ 4.95 µM); against Salmonella typhimurium it was 62.5 µg/mL (≈ 163 µM); in the assay on Pseudomonas aeruginosa [7], 1.9 µg/mL (≈ 4.95 µM).
As for `O=C(Nc1ccc(Cc2nc3ccccc3s2)cc1)c1ccc(F)cc1`, the MIC is 0.03 µg/mL in the assay on Escherichia coli [8] and 128 µg/mL (≈ 353 µM) against Escherichia coli [9].
On to `O=C(NN1C(=O)/C(=C/c2cccc([N+](=O)[O-])c2)SC1c1ccccc1)c1ccc(-c2ccccc2)cc1` (stereo not given), for which the MIC with Staphylococcus aureus [12] amounted to 3.12 µg/mL (≈ 6.15 µM); in the assay with Escherichia coli [13], 6.25 µg/mL (≈ 12.3 µM); with Pseudomonas aeruginosa [14] it was 3.12 µg/mL (≈ 6.15 µM); against Bacillus subtilis [15], 1.56 µg/mL (≈ 3.07 µM).
As for `COc1cccc(/C=C2\SC(c3ccccc3)N(NC(=O)c3ccc(-c4ccccc4)cc3)C2=O)c1` (stereo not given), the MIC amounted to 6.25 µg/mL (≈ 12.7 µM) against Staphylococcus aureus [12], 6.25 µg/mL (≈ 12.7 µM) against Escherichia coli [13], 6.25 µg/mL (≈ 12.7 µM) against Pseudomonas aeruginosa [14] and 1.56 µg/mL (≈ 3.17 µM) in the assay on Bacillus subtilis [15].
For `O=c1oc2ccccc2cc1-c1nn(-c2nc3ccccc3s2)cc1/C=N/Nc1nc(-c2ccc(-c3ccccc3)cc2)cs1`, the MIC in the assay on Micrococcus luteus, in the assay with Pseudomonas aeruginosa [1], against Bacillus subtilis [2], against Staphylococcus aureus [3], in the assay with Staphylococcus aureus [4] and with Escherichia coli [5] was 7.8 µg/mL (≈ 12.5 µM) in each case. In addition, the MIC with Raoultella planticola worked out at 31.2 µg/mL (≈ 50.1 µM).
As to `Cc1ccc(CC(=O)Nc2ccc(-c3nc4ccccc4s3)cc2)cc1`, the MIC in the assay on Escherichia coli [8] is 0.004 µg/mL; against Escherichia coli [9], 512 µg/mL (≈ 1430 µM).
`O=c1oc2c(Br)cc(Br)cc2cc1-c1csc(N/N=C/c2cn(-c3nc4ccccc4s3)nc2-c2cc3ccccc3oc2=O)n1`: the MIC with Micrococcus luteus was over 125 µg/mL; in the assay with Pseudomonas aeruginosa [1] it was over 125 µg/mL; against Bacillus subtilis [2] it was 3.9 µg/mL (≈ 5.05 µM); in the assay on Staphylococcus aureus [3] it was over 125 µg/mL; against Staphylococcus aureus [4], 7.8 µg/mL (≈ 10.1 µM); against Escherichia coli [5], 7.8 µg/mL (≈ 10.1 µM). Also, in the assay with Raoultella planticola, the MIC amounted to 7.8 µg/mL (≈ 10.1 µM).
For `COc1cccc(/C=N\n2c(S)nnc2-c2sc(-c3ccccc3)nc2C)c1`, the MIC against Staphylococcus aureus [6] was 31.2 µg/mL (≈ 76.6 µM); in the assay on Listeria monocytogenes, 1.9 µg/mL (≈ 4.66 µM); against Salmonella typhimurium it was 31.2 µg/mL (≈ 76.6 µM); against Pseudomonas aeruginosa [7], 1.9 µg/mL (≈ 4.66 µM).
`O=C(Cc1ccc(F)cc1)Nc1ccc(Cc2nc3ccccc3s2)cc1`: the MIC turned out to be 0.03 µg/mL in the assay with Escherichia coli [8] and 256 µg/mL (≈ 680 µM) with Escherichia coli [9].
Turning to `COc1ccc(-c2csc(N/N=C/c3cn(-c4nc5ccccc5s4)nc3-c3cc4ccccc4oc3=O)n2)cc1`, the MIC in the assay on Micrococcus luteus, in the assay on Pseudomonas aeruginosa [1], with Bacillus subtilis [2], against Staphylococcus aureus [3], against Staphylococcus aureus [4] and against Escherichia coli [5] was 7.8 µg/mL (≈ 13.5 µM) each time. Also, in the assay with Raoultella planticola, 7.8 µg/mL (≈ 13.5 µM) was the least that counted as inhibitory (MIC).
Turning to `CCc1ccc(C(=O)Nc2ccc(-c3nc4ccccc4s3)cc2)cc1`, the results for the minimum inhibitory concentration (MIC) in the assay on Escherichia coli [8] and in the assay with Escherichia coli [9] were 0.016 µg/mL and 128 µg/mL (≈ 357 µM), respectively.
On the same counts, the results for `O=C(Nc1ccc(Cc2nc3ccccc3s2)cc1)c1ccc([N+](=O)[O-])cc1` are 0.06 µg/mL and 128 µg/mL (≈ 329 µM).
In the case of `Cc1nc(-c2ccccc2)sc1-c1nnc(S)n1/N=C\c1ccc(F)cc1`, the MIC was 31.2 µg/mL (≈ 78.9 µM) in the assay on Staphylococcus aureus [6], 1.9 µg/mL (≈ 4.8 µM) against Listeria monocytogenes, 62.5 µg/mL (≈ 158 µM) in the assay with Salmonella typhimurium and 1.9 µg/mL (≈ 4.8 µM) in the assay with Pseudomonas aeruginosa [7].
For `O=C(NN1C(=O)/C(=C/c2ccccc2)SC1c1cccc(Br)c1)c1ccc(-c2ccccc2)cc1` (stereo not given), the MIC was 3.12 µg/mL (≈ 5.76 µM) against Staphylococcus aureus [12], 6.25 µg/mL (≈ 11.5 µM) against Escherichia coli [13], 3.12 µg/mL (≈ 5.76 µM) against Pseudomonas aeruginosa [14] and 3.12 µg/mL (≈ 5.76 µM) in the assay with Bacillus subtilis [15].
In the case of `CCCCOc1ccc(C(=O)Nc2ccc(-c3nc4ccccc4s3)cc2)cc1`, the MIC in the assay on Escherichia coli [8] is 0.5 µg/mL; in the assay with Escherichia coli [9], 64 µg/mL (≈ 159 µM).
`NC(=O)c1cc(-c2csc(-c3cccc(-c4csc(-c5ccccc5)n4)c3)n2)ccc1O`: the MBIC in the assay with Enterococcus faecalis [16] was found to be 0.008 mg/mL. Also, the MIC in the assay on Enterococcus faecalis [17] was determined as 250 µg/mL (≈ 549 µM).

A word on the MIC: it is the lowest concentration found to suppress growth. A word on the IC50: it is the concentration that inhibits the measured activity by half. A low value points to inhibition by little substance.
